What was measured:
[1] = tested on: Human colon cancer cells (WiDr); assay: Checkpoint escape effect in gemcitabine-treated WiDr cells (phosphorylated histone H3-positive cells); type: cell-based; conditions: gemcitabine 100 nM 24 hours, then test compound with nocodazole 8 hours
Source text: Pharmaceutical Text 3 (Method of Determining Drug Potency in Cells (Checkpoint-Removing Effect))
Fetal bovine serum (FBS) was obtained from Morgate; DMEM was from Invitrogen; gemcitabine was from Nippon Eli Lilly; nocodazole and 4′,6-diamidino-2-phenylindole were from Sigma; rabbit anti-phosphorylated histone H3 antibody was from Upstate; and fluorescence-labeled (Alexa Fluor 488) anti-rabbit IgG antibody was from Molecular Probe.
Human colon cancer cells (WiDr) were obtained from American Type Culture Collection (ATCC).
(§1) c) Method of Effect Determination:
The cells were suspended in DMEM containing 10% FBS, and the cell suspension was applied to a poly-D-lysine-coated 96-well plastic plate (bought from Becton Dickinson) in an amount of 2000 cells/100 μL/well, in which the cells were incubated overnight in 5% CO2-95% air at 37° C. Gemcitabine was dissolved in phosphate-buffered saline (PBS), and diluted with DMEM containing 10% FBS, and then this was applied to the plate on which the cells had been previously sowed, in an amount of 50 μL/well in such a manner that the final concentration of gemcitabine could be 100 nM. Then, the cells were incubated for 24 hours at 37° C. in 5% CO2-95% air. The test compound was stepwise diluted with dimethylsulfoxide, then diluted with 1200 nM nocodazole-containing DMEM containing 10% FBS, and applied to the plate on which the gemcitabine-treated cells had been sowed, in an amount of 50 μL/well. […] Next, this was washed with PBS, and a solution containing 4′,6-diamidino-2-phenylindole that had been diluted with 1% BSA/PBS to have a concentration 10 μg/mL and a fluorescence-labeled (Alexa Fluor 488) anti-rabbit IgG antibody that had been diluted 250-fold was added to it in an amount 50 μL/well, and reacted in a dark place at room temperature for 60 minutes. Finally, this was washed with PBS, and its fluorescence intensity was determined to calculate the ratio of the phosphorylated histone H3-positive cells (cells that had been in a cell division cycle through removal of checkpoint). […]

[2] = tested on: Cdc2 (Cdk1) tyrosine 15 phosphorylation in NCI-H1299 cells; assay: Cdc2 (Cdk1) tyrosine 15-phosphorylation-inhibitory effect in camptothecin-treated NCI-H1299 cells (ELISA); type: cell-based; conditions: Homo sapiens, camptothecin 200 nM 16 hours, then test compound with nocodazole 8 hours, read-out: Cdc2-Y15 Phosphorylation-Inhibitory Effect (H1299, + camptothecin) (EC50)
Source text: Pharmaceutical Text 2 (Method of Determining Drug Potency in Cells (Cdc2 (Cdk1) Tyrosine 15-Phosphorylation-Inhibitory Effect))
Fetal bovine serum (FBS) was obtained from Morgate; media RPMI1640 and DMEM were from Invitrogen; camptothecin was from Sigma; gemcitabine was from Nippon Eli Lilly; nocodazole and protease inhibitor cocktail were from Sigma; rabbit anti-Cdc2 antibody and mouse anti-Cdc2 antibody were from Santa Cruz Biotechnology; rabbit anti-tyrosine 15-phosphorylated Cdc2 antibody and horseradish peroxidase-labeled anti-mouse IgG antibody were from Cell Signaling Technology; sure blue reserve TMB peroxidase substrate was from Kirkegaard and Perry Laboratories.
Human non-small cell lung cancer cells (NCI-H1299) and human colon cancer cells (WiDr) were obtained from American Type Culture Collection (ATCC).
as §1
In the method of using NCI-H1299 cells, the cells were suspended in RPMI1640 containing 10% FBS, and the cell suspension was applied to a 96-well Nunclondelta-processed plastic plate (bought from Nunc), in an amount of 2000 cells/100 μL/well, in which the cells were incubated overnight in 5% CO2-95% air at 37° C. Camptothecin was dissolved in dimethylsulfoxide (DMSO), and diluted with RPMI1640 containing 10% FBS, and then this was applied to the plate on which the cells had been previously sowed, in an amount of 50 μL/well in such a manner that the final concentration of camptothecin could be 200 nM. Then, the cells were incubated for 16 hours at 37° C. in 5% CO2-95% air. The test compound was stepwise diluted with DMSO, then diluted with 4000 nM nocodazole-containing RPMI1640 containing 10% FBS, and applied to the plate on which the camptothecin-treated cells had been sowed, in an amount of 50 μL/well. The cells were incubated for 8 hours at 37° C. in 5% CO2-95% air, then the medium was removed, and a cytolytic buffer was added to the plate in an amount of 100 μL/well, shaken at 4° C. for 2 hours, then frozen at −80° C., and melted to give a cell solution. Cdc2 and tyrosine 15-phosphorylated Cdc2 in the cell solution were determined through enzyme-linked immunosorbent assay (ELISA), and the ratio of tyrosine 15-phosphorylated Cdc2 to Cdc2 was calculated to obtain the 50% phosphorylation-inhibitory concentration of the test compound to the cells (EC50, nM). The cytolytic buffer used herein is an aqueous solution containing 20 mM Hepes (pH 7.5), 150 mM sodium chloride, 1 mM disodium ethylenediaminetetraacetate, 0.1% polyoxyethylene (10) octylphenyl ether, 1% protease inhibitor cocktail, 1 mM dithiothreitol, 2 mM sodium orthovanadate, 10 mM sodium fluoride and 10 mM glycerol diphosphate. Cdc2 was determined through ELISA as follows: A rabbit anti-Cdc2 antibody solution, which had been diluted 200-fold with 50 mM carbonate-bicarbonate buffer (pH 9.6), was applied to a 96-well maxisorpimmuno plate (bought from Nunc), in an amount of 50 μL/well, and statically kept overnight at 4° C. so as to fix the antibody on the plate. Next, this was washed three times with phosphate-buffered saline (PBS), and 5% bovine serum albumin-containing PBS (5% BSA/PBS) was added thereto in an amount of 300 μL/well, and statically kept at room temperature for 2 hours, and then again washed three times with PBS. A mouse anti-Cdc2 antibody solution that had been diluted 100-fold with 0.05% polyoxyethylene sorbitan monolaurate and 1% BSA-containing Tris-HCl-buffered saline (1% BSA/TBS-T) was added to it in an amount of 50 μL/well, and the cell solution was added thereto in an amount of 5 μL/well and statically kept overnight at 4° C. Next, this was washed three times with 0.05% polyoxyethylene sorbitan monolaurate and 0.1% BSA-containing Tris-HCl-buffered saline (0.1% BSA/TBS-T), and then a horseradish peroxidase-labeled anti-mouse IgG antibody solution that had been diluted 2000-fold with 1% BSA/TBS-T was added thereto in an amount of 70 μL/well, and statically kept at room temperature for 3 hours. […]

[3] = tested on: Human colon cancer cells WiDr; assay: Tumor growth-inhibitory effect, WiDr implanted subcutaneously in nude rats; type: in vivo, F344/N Jcl-mu nude rats; conditions: statement on Table 5
Method: Pharmaceutical Test 4 (Tumor Growth-Inhibitory Effect)
Human colon cancer cells WiDr (gotten from ATCC) were implanted into the subcutaneous area of the back of F344/N Jcl-mu nude rats. Eight days after the implantation, gemcitabine (50 mg/kg, Gemzar injection, Eli-Lilly) was intravenously administered to them; and after 24 hours, a test compound was dissolved in a solvent (5% glucose) and given to them through continuous intravenous injection for 8 hours. The tumor volume (0.5×(major diameter)×(minor diameter)^2) was determined on day 0, 3, 6, 10 and 13. Day 0 means the day on which gemcitabine was administered. The relative tumor volume is a relative value, as calculated on the basis of the tumor volume of 1 on day 0. The tumor growth percentage (% T/C) was obtained according to the following formula:
When the tumor volume change from day 0 in the group subjected to test compound administration is more than 0 (>0): % T/C=[(tumor volume change in the test compounds on day 3, 6, 10, 13)/(tumor volume change in the control on day 3, 6, 10, 13)]×100. When the tumor volume change from day 0 in the group subjected to test compound administration is less than 0 (<0): % T/C=[(tumor volume change in the test compounds on day 3, 6, 10, 13)/(tumor volume […])]×100.

| EC50 [1] [nM] | EC50 [2] [nM] | Structure (SMILES) | tumor growth percentage (in words) [3] |
| --- | --- | --- | --- |
| 110 | 100 | CC(C)n1c(=O)c2cnc(Nc3ccc(C4CCN(C)CC4)cc3)nc2n1-c1cccc(C(C)(C)O)n1 [Example 147, 1-[6-(1-hydroxy-1-methylethyl)pyridin-2-yl]-2-isopropyl-6-{[4-(1-methylpiperidin-4-yl)phenyl]amino}-1,2-dihydro-3H-pyrazolo[3,4-d]pyrimidin-3-one] | – |
| – | – | Nc1ccn([C@@H]2O[C@H](CO)[C@@H](O)C2(F)F)c(=O)n1 [Gemcitabine, gemcitabine] | reduced the tumor growth percentage |
